# Results reported in patent publication US20160361326A1, “METHOD OF TREATING HYPERGLYCEMIA AND DIABETES AND OF INCREASING ADSORPTION AND EFFICACY OF VITAMIN D” (Board of Supervisors of Louisiana State University and …, priority 2015, published 2016).
# Assays:
# [1] = system: THP-1 monocytes; test: L-cysteine and vitamin D supplementation in control and high-glucose treated THP-1 monocytes; assay type: cell-based, human
# Procedure: Control cells were treated with mannitol, which is considered an osmolarity control. To investigate the role of glutathione, siRNA specific for glutamate cysteine ligase catalytic unit (the catalytic component of the enzyme) was used to knock down the enzyme and induce glutathione deficiency. Complexes of glutamate cysteine ligase catalytic unit siRNA (Santa Cruz Biotechnology) and lipofectamine (Invitrogen) were allowed to form in culture flasks in serum free media, to which cells suspended in serum free media were added. After 24 hours complete media with serum was added and the cells were then treated as described in the figures.
# 25-hydroxy vitamin D (calcidiol) blood test is used to determine how much vitamin D is in the body. The blood concentration of calcidiol is considered an standard indicator of vitamin D status. The kit includes polyclonal antibodies that detect total vitamin D binding protein levels. Levels of glutathione and L-cysteine were determined using HPLC. Details of immunoblotting and cell viability are similar to those given in the publication Vitamin D and 1-cysteine levels correlate positively with glutathione and negatively with insulin resistance levels in the blood of type 2 diabetic patients. Eur J Clin Nutr 68: 1148-1153, 2014 by Jain S K, Micinski D, Huning L, Kahlon G, Bass P F, and Levine SN—such described methods incorporated by reference herein. The antibodies for glutamate cysteine ligase catalytic unit (73 KD), vitamin D binding protein (52 KD), and vitamin D receptor (48 KD) were purchased from Abcam (Cambridge, Mass.).
# [2] = system: FL83B hepatocytes; test: L-cysteine supplementation in FL83B hepatocytes treated with control and high glucose; assay type: cell-based, mouse
# Procedure: The FL83B hepatocyte cell line was purchased from American Type Culture Collection (ATCC, Manassas, Va., USA). FL83B hepatocytes were cultured and maintained in F-12K complete medium. […] Control cells were treated with mannitol, which is considered an osmolarity control in some experiments. After 24 h, complete media with serum was added and the cells were then treated as described in the figures.
# (§1) Levels of glutathione and L-cysteine were determined using HPLC. In cell culture studies, the whole cell suspension was processed for the glutathione assay. Cell viability was determined using the Alamar Blue method (Alamar Biosciences, Sacramento, Calif., USA). Details of immunoblotting are similar to those known in the art. The antibodies for vitamin D binding protein (52 KD), β-Actin (40 KD), glutamate-cysteine ligase catalytic subunit (GCLC) (75 KD), and vitamin D receptor (48 KD) were purchased from Abcam (Cambridge, Mass., USA). The intensity of each immunoblotting band was measured using the histogram tool of Adobe Photoshop CS5.
# mRNA extraction and cDNA synthesis were done as described in the previous section. The following primers were used for hepatocytes: vitamin D binding protein (also called GC) (Mm04243540_m1), vitamin D receptor (Mm00437297_m1), GCLC (Mm00802655_m1), and GAPDH (Mm03302249_g1) and were purchased from Invitrogen. Sequence of oligonucleotides of primers used is given in Supporting Information Material. The relative fold change of mRNA was calculated using the relative quantification (ΔΔCT) method and then normalized to % control for representation.
# [3] = L-cysteine supplementation in Zucker diabetic fatty rats: body weight, plasma lipids, liver and kidney function tests; assay type: in vivo, rat
# Description: (§2) The animal protocol was approved by the institutional Animal Welfare Committee (P-15-006). All procedures performed were in accordance with the ethical standards of the institution. Male Zucker diabetic fatty rats at an age of 5 weeks and weighing about 200-220 g were purchased from Charles River (Wilmington, Mass., USA). The animals were allowed to acclimate to the environmental and handling conditions for 2 days. Computer generated randomization was used to divide rats into two groups, after which they were housed and labelled in individual cages. After overnight fasting they were weighed and tested for hyperglycemia by measuring their blood glucose concentration. Blood was collected via tail incision and the blood glucose levels were measured using an Advantage Accu-chek glucometer (Boehringer Mannheim Corp., Indianapolis, Ind., USA). One group of rats was labeled as diabetic controls and gavaged with saline alone. […] A third group included in the study, called the control group, consisted of male Sprague Dawley (SD) rats who were also gavaged daily with saline. […] Blood glucose and body weight were monitored weekly in all rats.
# All Zucker diabetic fatty rats were fed a high calorie Purina 5008 lab chow diet (Charles River, Wilmington, Mass., USA). This diet contained 3.4 IU vitamin D3 per gram diet. Sprague Dawley rats were fed a standard 8640 lab chow diet, which contained 3 IU vitamin D3 per gram diet (Harlan, Indianapolis, Ind., USA); both Zucker diabetic fatty and Sprague Dawley rats were maintained at 22 ±2° C. with 12:12-h light/dark cycles. Food intake of all rats was monitored. The control group contained six rats. […] At the end of 8 weeks the rats were fasted overnight and euthanized by exposing them to halothane (2-bromo-2-chloro-1,1,1-trifluoroethane). Blood was drawn with a 191/2 gauge needle via cardiac puncture into vacutainer tubes. Aliquots of blood collected from all rats were sent to the clinical laboratory of LSUHSC-Shreveport for blood chemistry profiles, including liver and renal function and red blood cell counts. Plasma was isolated in a 4° C. centrifuge at 3000 rpm for 10 min from blood collected into EDTA tubes. Rat livers were perfused using cold saline. Once extracted, they were labeled appropriately, and stored at −80° C.
# [4] = system: Zucker diabetic fatty rats; test: L-cysteine supplementation in Zucker diabetic fatty rats: liver protein and mRNA expression, glutathione, reactive oxygen species; assay type: in vivo, rat; settings: 8 weeks
# Description: as §2, with “rats. Based on any change in their weights the L-cysteine supplementation dose was adjusted accordingly every week to maintain a similar dose per Kg BW over the entire period of the study.” for “rats.”
# (§3) All Zucker diabetic fatty rats were fed a high calorie Purina 5008 lab chow diet (Charles River, Wilmington, Mass., USA). This diet contained 3.4 IU vitamin D3 per gram diet. Sprague Dawley rats were fed a standard 8640 lab chow diet, which contained 3 IU vitamin D3 per gram diet (Harlan, Indianapolis, Ind., USA); both Zucker diabetic fatty and Sprague Dawley rats were maintained at 22 ±2° C. with 12:12-h light/dark cycles. Food intake of all rats was monitored. The control group contained six rats. There were also six rats each in the placebo and L-cysteine-supplemented diabetic rat groups. At the end of 8 weeks the rats were fasted overnight and euthanized by exposing them to halothane (2-bromo-2-chloro-1,1,1-trifluoroethane). Blood was drawn with a 191/2 gauge needle via cardiac puncture into vacutainer tubes. Aliquots of blood collected from all rats were sent to the clinical laboratory of LSUHSC-Shreveport for blood chemistry profiles, including liver and renal function and red blood cell counts. Plasma was isolated in a 4° C. centrifuge at 3000 rpm for 10 min from blood collected into EDTA tubes. Rat livers were perfused using cold saline. Once extracted, they were labeled appropriately, and stored at −80° C.
# About 50 mg of liver tissue was weighed and homogenized in 1 mL TRIzol reagent (Invitrogen, Grand Island, N.Y., USA). The RNA extraction was performed according to the instructions provided. The concentration and quality of the extracted RNA were determined on a NanoDrop spectrophotometer (Thermo Scientific, Pittsburgh, Pa., USA). A High Capacity RNA-To-cDNA kit (Invitrogen) was used to synthesize cDNA. QPCR was performed using a 7900HT Real Time PCR system and software (Applied Biosystems, Grand Island, NY, USA) using the FAM-labeled primer/probe set Rn00561256_m1 for vitamin D binding protein (also called GC), Rn00690616_m1 for vitamin D receptor, Rn01754615 ml for CYP2R1, and Rn01775763_g1 for GAPDH (Invitrogen), respectively. The relative fold change of mRNA was calculated using the relative quantification (ΔΔCT) method.
# as §1, with “The intensity of each immunoblotting band was measured using the histogram tool of Adobe Photoshop CS5.” left out
# [5] = system: Zucker diabetic fatty rats; test: L-cysteine supplementation in Zucker diabetic fatty rats: plasma levels of VDBP, 25(OH) vitamin D, glutathione, MCP-1, CRP; assay type: in vivo, rat; settings: 1 mg/kg BW daily oral gavage, 8 weeks
# Description: as §2, with “rats. Based on any change in their weights the L-cysteine supplementation dose was adjusted accordingly every week to maintain a similar dose per Kg BW over the entire period of the study.” for “rats.”
# as §3
# Plasma levels of 25(OH) vitamin D, […] were determined using an ELISA kit (Eagle Biosciences, Nashua, N.H., USA). Plasma vitamin D binding protein quantification was carried out using a kit purchased from Alpco (Salem, N.H., USA). The kit includes polyclonal antibodies that detect total vitamin D binding protein levels. The cytokines MCP-1 (R&D Systems Inc., Minneapolis, Minn., USA) and CRP (Alpco) were determined using the sandwich ELISA method and commercially available kits. In the cytokine assay, control samples were analyzed each time to check the variation from plate to plate on different days of analysis. […]
# Levels of glutathione and L-cysteine were determined using HPLC. […] Cell viability was determined using the Alamar Blue method (Alamar Biosciences, Sacramento, Calif., USA). […] The intensity of each immunoblotting band was measured using the histogram tool of Adobe Photoshop CS5.
# [6] = control and high glucose (25 mM)
# [7] = hepatocytes cultured with high glucose (25 mM)
# [8] = 1 mg/kg BW daily gavage for 8 weeks, mean ± SE, n=6
# [9] = 1 mg/kg BW daily oral gavage, vs placebo
# [10] = vs placebo-supplemented diabetic rats
smiles,measurement,setting,value
"C=C1CC[C@H](O)C/C1=C/C=C1\CCC[C@]2(C)[C@@H]([C@H](C)CCCC(C)C)CC[C@@H]12 [vitamin D, cholecalciferol]",vitamin D binding protein expression (VDBP/actin ratio),[1]; [6],increase
same,vitamin D receptor protein expression (VDR/actin ratio),[1]; [6],increase
N[C@@H](CS)C(=O)O [L-cysteine],mRNA levels of vitamin D binding protein,[2]; [7],upregulation
same,mRNA levels of vitamin D receptor,[2]; [7],upregulation
same,protein expression of vitamin D binding protein,[2]; [7],upregulation
same,protein expression of vitamin D receptor,[2]; [7],upregulation
same,decrease in glutathione levels after high glucose treatment,"[2]; hepatocytes, high glucose (25 mM)",prevented
same,Body weight,[3]; [8],346 ± 6.3 g
same,Triglycerides,[3]; [8],509 ± 55 mg/dL
same,side effects of L-cysteine supplementation,"[3]; 1 mg/kg BW daily gavage for 8 weeks, vs placebo",no negative side effects
same,Calcium,"[3]; rat, in vivo, 1 mg/kg",9.9 ± 0.4 mg/dL
same,glutathione levels,[1],significant upregulation
same,glutathione levels in liver,[4]; [9],significantly higher
same,mRNA expression of vitamin D 25-hydroxylase (CYP2R1) in liver,[4]; [9],significantly higher
same,mRNA expression of vitamin D binding protein in liver,[4]; [9],significantly higher
same,protein expression of vitamin D 25-hydroxylase (CYP2R1) in liver,[4]; [9],significantly higher
same,protein expression of vitamin D binding protein in liver,[4]; [9],significantly higher
same,reactive oxygen species levels in liver,[4]; [9],significantly lower
same,expression of protein for vitamin D receptor in liver,"[4]; 1 mg/kg BW, higher vs placebo, p=0.17",not statistically significant
same,expression of mRNA for vitamin D receptor in liver,"[4]; 1 mg/kg BW, higher vs placebo, p=0.30",not statistically significant
same,plasma glutathione,[5]; vs placebo,increase
same,blood levels of 25(OH) vitamin D,[5]; [10],significantly higher
same,blood levels of vitamin D binding protein,[5]; [10],significantly higher
same,CRP,"[5]; plasma, vs placebo",decrease
same,MCP-1,"[5]; plasma, vs placebo",decrease
